Several values for one entry are separate records, joined by “and”; a condition that tells them apart may be missing. Identical values can stand only once. Like-named read-outs stand apart in the source and are kept apart here.
Tests used:
TSH = assay: Serum TSH after oral administration to hypothyroid rats (chemiluminescent immunoassay); format: in vivo, Sprague-Dawley rats; conditions: for TSH, mean: mean n=6, oral 12 μg/kg T3; for Individual animal TSH: individual animals 1-6, oral 12 μg/kg T3, hydrochloride salt
Experimental: (§1) T3 sodium, G-T3, V-T3, I-T3, Y-T3, A2-T3, P2-T3, or F2-T3 were administered at equimolar doses to Sprague-Dawley rats (12 μg/kg T3; HED˜120 μg T3 sodium; n=6, per group) that were hypothyroid due to removal of the thyroid gland approximately one week prior to evaluation. Serum was collected at 0 (pre-dose), 1, 2, 4, 6, 8 and 12 hours post-dose and analyzed for total T3 and TSH by chemiluminescent immunoassay (Immulite CIA). […] At 1 hour post dose the mean level of Total T3 was 327.3, 429.5, 432.7, 403.3, 431, and 433.1 ng/ml for G-T3, V-T3, I-T3, Y-T3, P2-T3, and F2-T3 dosed animals respectively as compared to 577 ng/ml for T3 sodium dosed animals. Applicants note that some variation in these values may be present as with A2-T3 (FIGS. 15 and 16).

[1] = design: species or system Sprague-Dawley rats; conditions: rat, in vivo
Experimental: Compounds were tested in Sprague-dawley rats (˜250 g). Defined doses were delivered as oral solutions in 0.5% sodium bicarbonate buffer with T3 sodium salt containing 12 mcgT3/kg or triiodothyronine composition containing the equivalent amount of T3. Rats were dosed immediately following 0 hour serum collection. Serum was collected from rats at 2, 4, 6, 9, 12 and 24 hours after capsule delivery. Total serum T3 concentrations were determined by ELISA using a commercially available kit (Total Triiodothyronine (total T3) ELISA KIT, product #1700, ALPHA DIAGNOSTIC, San Antonio, Tex.). Total serum T4 concentrations were determined by ELISA using a commercially available kit (Total Thyronine (Total T4) ELISA KIT, product #1100, ALPHA DIAGNOSTIC, San Antonio, Tex.).
The general procedures described above were employed for the experimental data described below. These procedures are subject to minor variations in timing and weight of rats, etc.
as §1

Compound: CC[C@H](C)[C@H](N)C(=O)N[C@@H](Cc1cc(I)c(Oc2ccc(O)c(I)c2)c(I)c1)C(=O)O [I-T3]
- TSH, mean (TSH; 0 h (pre-dose)): 2.331 μIU
- TSH, mean (TSH; 1 h): 2.218 μIU
- TSH, mean (TSH; 2 h): 1.203 μIU
- TSH, mean (TSH; 4 h): 0.351 μIU
- TSH, mean (TSH; 6 h): 0.169 μIU
- TSH, mean (TSH; 8 h): 0.131 μIU
- TSH, mean (TSH; 12 h): 0.271 μIU
- TSH levels in response to administration (TSH; oral 12 μg/kg T3): decreased rapidly
- Total T3 AUC, % (of T3) [1]: 96.6%
- Total T3Δ dAUC, % (of T3) [1]: 100.8%
- Variability of T3 absorption compared with T3 sodium [1]: decreased variability of T3 absorption
- mean level of Total T3 at 1 hour post dose ([1]; po): 432.7 ng/mL

Compound: CC(C)[C@H](N)C(=O)N[C@@H](Cc1cc(I)c(Oc2ccc(O)c(I)c2)c(I)c1)C(=O)O [V-T3]
- TSH, mean (TSH; 0 h (pre-dose)): 2.309 μIU
- TSH, mean (TSH; 1 h): 2.212 μIU
- TSH, mean (TSH; 2 h): 1.123 μIU
- TSH, mean (TSH; 4 h): 0.282 μIU
- TSH, mean (TSH; 6 h): 0.174 μIU
- TSH, mean (TSH; 8 h): 0.175 μIU
- TSH, mean (TSH; 12 h): 0.54 μIU
- TSH levels in response to administration (TSH; oral 12 μg/kg T3): decreased rapidly
- Total T3 AUC, % (of T3) [1]: 94.9%
- Total T3Δ dAUC, % (of T3) [1]: 98.6%
- Variability of T3 absorption compared with T3 sodium [1]: decreased variability of T3 absorption
- mean level of Total T3 at 1 hour post dose ([1]; po): 429.5 ng/mL

Compound: N[C@@H](Cc1ccc(O)cc1)C(=O)N[C@@H](Cc1cc(I)c(Oc2ccc(O)c(I)c2)c(I)c1)C(=O)O [Y-T3]
- TSH, mean (TSH; 0 h (pre-dose)): 2.595 μIU
- TSH, mean (TSH; 1 h): 2.648 μIU
- TSH, mean (TSH; 2 h): 1.601 μIU
- TSH, mean (TSH; 4 h): 0.471 μIU
- TSH, mean (TSH; 6 h): 0.27 μIU
- TSH, mean (TSH; 8 h): 0.221 μIU
- TSH, mean (TSH; 12 h): 0.651 μIU
- TSH levels in response to administration (TSH; oral 12 μg/kg T3): decreased rapidly
- Total T3 AUC, % (of T3) [1]: 95.5%
- Total T3Δ dAUC, % (of T3) [1]: 100.4%
- Variability of T3 absorption compared with T3 sodium [1]: decreased variability of T3 absorption
- mean level of Total T3 at 1 hour post dose ([1]; po): 403.3 ng/mL

Compound: C[C@H](N)C(=O)N[C@@H](C)C(=O)N[C@@H](Cc1cc(I)c(Oc2ccc(O)c(I)c2)c(I)c1)C(=O)O [A2-T3]
- TSH, mean (TSH; 0 h (pre-dose)): 2.459 μIU
- TSH, mean (TSH; 1 h): 2.11 μIU
- TSH, mean (TSH; 2 h): 0.889 μIU
- TSH, mean (TSH; 4 h): 0.292 μIU
- TSH, mean (TSH; 6 h): 0.174 μIU
- TSH, mean (TSH; 8 h): 0.182 μIU
- TSH, mean (TSH; 12 h): 0.381 μIU
- TSH levels in response to administration (TSH; oral 12 μg/kg T3): decreased rapidly
- Total T3 AUC, % (of T3) [1]: 104.4%
- Total T3Δ dAUC, % (of T3) [1]: 113.4%

Compound: N[C@@H](Cc1ccccc1)C(=O)N[C@@H](Cc1ccccc1)C(=O)N[C@@H](Cc1cc(I)c(Oc2ccc(O)c(I)c2)c(I)c1)C(=O)O [F2-T3]
- TSH, mean (TSH; 0 h (pre-dose)): 3.035 μIU
- TSH, mean (TSH; 1 h): 2.192 μIU
- TSH, mean (TSH; 2 h): 1.364 μIU
- TSH, mean (TSH; 4 h): 0.405 μIU
- TSH, mean (TSH; 6 h): 0.246 μIU
- TSH, mean (TSH; 8 h): 0.242 μIU
- TSH, mean (TSH; 12 h): 0.757 μIU
- TSH levels in response to administration (TSH; oral 12 μg/kg T3): decreased rapidly
- Total T3 AUC, % (of T3) [1]: 88.3%
- Total T3Δ dAUC, % (of T3) [1]: 94.7%
- Variability of T3 absorption compared with T3 sodium [1]: decreased variability of T3 absorption
- mean level of Total T3 at 1 hour post dose ([1]; po): 433.1 ng/mL

Compound: O=C(O)[C@H](Cc1cc(I)c(Oc2ccc(O)c(I)c2)c(I)c1)NC(=O)[C@@H]1CCCN1C(=O)[C@@H]1CCCN1 [P2-T3]
- TSH, mean (TSH; 0 h (pre-dose)): 2.988 μIU
- TSH, mean (TSH; 1 h): 2.438 μIU
- TSH, mean (TSH; 2 h): 1.363 μIU
- TSH, mean (TSH; 4 h): 0.346 μIU
- TSH, mean (TSH; 6 h): 0.21 μIU
- TSH, mean (TSH; 8 h): 0.189 μIU
- TSH, mean (TSH; 12 h): 0.735 μIU
- TSH levels in response to administration (TSH; oral 12 μg/kg T3): decreased rapidly
- Total T3 AUC, % (of T3) [1]: 92.3%
- Total T3Δ dAUC, % (of T3) [1]: 97.9%
- Variability of T3 absorption compared with T3 sodium [1]: decreased variability of T3 absorption
- mean level of Total T3 at 1 hour post dose ([1]; po): 431 ng/mL

Compound: Cl.NCC(=O)NC(Cc1cc(I)c(Oc2ccc(O)c(I)c2)c(I)c1)C(=O)O (centres unmarked) [G-T3, 2-(2-aminoacetoamido)-3-(4-(4-hydroxy-3-iodophenoxy)-3,5-diiodophenyl) propanoic acid, hydrochloride salt]
- Individual animal TSH (TSH; 0 h (pre-dose)): 1.680 μIU and 2.584 μIU and 2.304 μIU and 1.956 μIU and 1.860 μIU and 1.740 μIU
- TSH, mean (TSH; 0 h (pre-dose)): 2.021 μIU
- Individual animal TSH (TSH; 1 h): 2.660 μIU and 2.564 μIU and 2.392 μIU and 1.960 μIU and 1.612 μIU and 1.400 μIU
- TSH, mean (TSH; 1 h): 2.098 μIU
- Individual animal TSH (TSH; 2 h): 1.340 μIU and 1.472 μIU and 1.648 μIU and 1.160 μIU and 1.104 μIU and 1.008 μIU
- TSH, mean (TSH; 2 h): 1.289 μIU
- Individual animal TSH (TSH; 4 h): 0.364 μIU and 0.352 μIU and 0.296 μIU and 0.216 μIU and 0.276 μIU and 0.248 μIU
- TSH, mean (TSH; 4 h): 0.292 μIU
- Individual animal TSH (TSH; 6 h): 0.232 μIU and 0.172 μIU and 0.152 μIU and 0.112 μIU and 0.205 μIU and 0.100 μIU
- TSH, mean (TSH; 6 h): 0.162 μIU
- Individual animal TSH (TSH; 8 h): 0.232 μIU and 0.172 μIU and 0.136 μIU and 0.124 μIU and 0.168 μIU and 0.076 μIU
- TSH, mean (TSH; 8 h): 0.151 μIU
- Individual animal TSH (TSH; 12 h): 0.540 μIU and 0.612 μIU and 0.224 μIU and 0.548 μIU and 0.268 μIU and 0.372 μIU
- TSH, mean (TSH; 12 h): 0.427 μIU
- TSH levels in response to administration (TSH; oral 12 μg/kg T3, hydrochloride salt): decreased rapidly
- Tmax, % T3 ([1]; Sprague-Dawley): 125%
- Total T3 AUC, % (of T3) ([1]; Sprague-Dawley): 88.1%
- Total T3 AUClast, % T3 ([1]; Sprague-Dawley): 89%
- Total T3 Cmax, % T3 ([1]; Sprague-Dawley): 79%
- Total T3Δ AUClast, % T3 ([1]; Sprague-Dawley): 89%
- Total T3Δ Cmax, % T3 ([1]; Sprague-Dawley): 78%
- Total T3Δ dAUC, % (of T3) ([1]; Sprague-Dawley): 90.9%
- Variability of T3 absorption compared with T3 sodium ([1]; Sprague-Dawley): decreased variability of T3 absorption
- Release / absorption of T3 compared with T3 sodium ([1]; Sprague-Dawley, po): delayed release of T3
- mean level of Total T3 at 1 hour post dose ([1]; Sprague-Dawley, po, 1 h): 327.3 ng/mL
